Measured values published in patent publication US9957263B2, “Bromodomain inhibitors” (AbbVie Inc., priority 2013, dated 2018).

Assays:
BRD4 (BDII_E352-M457) = BRD4 (BDII_E352-M457) (Homo sapiens (Human), UniProt O60885); assay: TR-FRET bromodomain binding assay, BRD4 second bromodomain; conditions: His-tagged BD2, Alexa647-labeled probe 30 nM
Procedure: (§1) A time-resolved fluorescence resonance energy transfer (TR-FRET) assay was used to determine the affinities of compounds of the Examples listed in Table 1 for each bromodomain of BRD4. His-tagged first (BD1: amino acids K57-E168) and second (BD2: amino acids E352-E168) bromodomains of BRD4 were expressed and purified. An Alexa647-labeled BET-inhibitor was used as the fluorescent probe in the assay.
(§2) Compound dilution series were prepared in DMSO via a 3-fold serial dilution from 2.5 mM to 42 nM. Compounds were then diluted 6:100 in assay buffer (20 mM Sodium Phosphate, pH 6.0, 50 mM NaCl, 1 mM Ethylenediaminetetraacetic acid disodium salt dihydrate, 0.01% Triton X-100, 1 mM DL-Dithiothreitol) to yield 3× working solutions. Six microliters (μL) of the working solution was then transferred to white, low-volume assay plates (Costar #3673). A 1.5× assay mixture containing His-tagged bromodomain, Europium-conjugated anti-His antibody (Invitrogen PV5596) and the Alexa-647-conjugated probe molecule was also prepared. Twelve μL of this solution were added to the assay plate to reach a final volume of 18 μL. The final concentration of 1× assay buffer contains 2% DMSO, 50 μM-0.85 nM compound, 8 nM His-tagged bromodomain, 1 nM Europium-conjugated anti-His-tag antibody and 100 nM or 30 nM probe (for BDI or BDII, respectively). After a one-hour incubation at room temperature, TR-FRET ratios were determined using an Envision multilabel plate reader (Ex 340, Em […]).
(§3) TR-FRET data were normalized to the means of 24 no-compound controls (“high”) and 8 controls containing 1 μM un-labeled probe (“low”). Percent inhibition was plotted as a function of compound concentration and the data were fit with the 4 parameter logistic equation to obtain IC50s. Inhibition constants (Ki) were calculated from the IC50s, probe Kd and probe concentration. Typical Z′ values were between 0.65 and 0.75. The minimum significant ratio was determined to evaluate assay reproducibility (Eastwood et al., (2006) J Biomol Screen, 11: 253-261). The MSR was determined to be 2.03 for BDI and 1.93 for BDII, and a moving MSR (last six run MSR overtime) for both BDI and BDII was typically <3.

BRD4 (BDI_K57-E168) = BRD4 (BDI_K57-E168) (Homo sapiens (Human), UniProt O60885); assay: TR-FRET bromodomain binding assay, BRD4 first bromodomain; conditions: His-tagged BD1, Alexa647-labeled probe 100 nM
Procedure: as §1, §2, §3

SMILES	Ki (BRD4 (BDII_E352-M457))	Ki (BRD4 (BDI_K57-E168))
Cn1cc(-c2cc(S(C)(=O)=O)ccc2Oc2cccc(NS(=O)(=O)C3CC3)c2)c2cc[nH]c2c1=O [Example 49, N-{3-[2-(6-methyl-7-oxo-6,7-dihydro-1H-pyrrolo[2,3-c]pyridin-4-yl)-4-(methylsulfonyl)phenoxy]phenyl}cyclopropanesulfonamide]	1 nM	4.4 nM
Cc1cccc(S(=O)(=O)Nc2cccc(Oc3ccc(S(C)(=O)=O)cc3-c3cn(C)c(=O)c4[nH]ccc34)c2)c1 [Example 50, 3-methyl-N-{3-[2-(6-methyl-7-oxo-6,7-dihydro-1H-pyrrolo[2,3-c]pyridin-4-yl)-4-(methylsulfonyl)phenoxy]phenyl}benzenesulfonamide]	1.2 nM	3.4 nM
Cn1cc(-c2cc(S(C)(=O)=O)ccc2Oc2cccc(NS(=O)(=O)c3cccc([N+](=O)[O-])c3)c2)c2cc[nH]c2c1=O [Example 51, N-{3-[2-(6-methyl-7-oxo-6,7-dihydro-1H-pyrrolo[2,3-c]pyridin-4-yl)-4-(methylsulfonyl)phenoxy]phenyl}-3-nitrobenzenesulfonamide]	3 nM	5 nM
Cc1cc(F)ccc1S(=O)(=O)Nc1cccc(Oc2ccc(S(C)(=O)=O)cc2-c2cn(C)c(=O)c3[nH]ccc23)c1 [Example 52, 4-fluoro-2-methyl-N-{3-[2-(6-methyl-7-oxo-6,7-dihydro-1H-pyrrolo[2,3-c]pyridin-4-yl)-4-(methylsulfonyl)phenoxy]phenyl}benzenesulfonamide]	1.1 nM	2 nM
Cn1cc(-c2cc(S(C)(=O)=O)ccc2Oc2cccc(NS(=O)(=O)c3ccc(S(C)(=O)=O)cc3)c2)c2cc[nH]c2c1=O [Example 54, N-{3-[2-(6-methyl-7-oxo-6,7-dihydro-1H-pyrrolo[2,3-c]pyridin-4-yl)-4-(methylsulfonyl)phenoxy]phenyl}-4-(methylsulfonyl)benzenesulfonamide]	1.1 nM	3.2 nM
Cn1cc(-c2cc(S(C)(=O)=O)ccc2Oc2cccc(NS(=O)(=O)c3ccccc3C#N)c2)c2cc[nH]c2c1=O [Example 55, 2-cyano-N-{3-[2-(6-methyl-7-oxo-6,7-dihydro-1H-pyrrolo[2,3-c]pyridin-4-yl)-4-(methylsulfonyl)phenoxy]phenyl}benzenesulfonamide]	2.8 nM	6.9 nM
Cn1cc(-c2cc(S(C)(=O)=O)ccc2Oc2cccc(NS(=O)(=O)c3ccc(C#N)cc3)c2)c2cc[nH]c2c1=O [Example 56, 4-cyano-N-{3-[2-(6-methyl-7-oxo-6,7-dihydro-1H-pyrrolo[2,3-c]pyridin-4-yl)-4-(methylsulfonyl)phenoxy]phenyl}benzenesulfonamide]	3.4 nM	8.8 nM
Cn1cc(-c2cc(S(C)(=O)=O)ccc2Oc2cccc(NS(=O)(=O)c3cccc(C#N)c3)c2)c2cc[nH]c2c1=O [Example 57, 3-cyano-N-{3-[2-(6-methyl-7-oxo-6,7-dihydro-1H-pyrrolo[2,3-c]pyridin-4-yl)-4-(methylsulfonyl)phenoxy]phenyl}benzenesulfonamide]	2.2 nM	5.3 nM
Cn1cc(-c2cc(S(C)(=O)=O)ccc2Oc2cccc(NS(=O)(=O)c3ccc(F)cc3Cl)c2)c2cc[nH]c2c1=O [Example 58, 2-chloro-4-fluoro-N-{3-[2-(6-methyl-7-oxo-6,7-dihydro-1H-pyrrolo[2,3-c]pyridin-4-yl)-4-(methylsulfonyl)phenoxy]phenyl}benzenesulfonamide]	2.4 nM	4.7 nM
Cn1cc(-c2cc(S(C)(=O)=O)ccc2Oc2cccc(NCc3cccc(C#N)c3)c2)c2cc[nH]c2c1=O [Example 60, 3-[({3-[2-(6-methyl-7-oxo-6,7-dihydro-1H-pyrrolo[2,3-c]pyridin-4-yl)-4-(methylsulfonyl)phenoxy]phenyl}amino)methyl]benzonitrile]	2 nM	7.9 nM
Cn1cc(-c2cc(S(C)(=O)=O)ccc2Oc2cccc(NCc3ccc(C#N)cc3)c2)c2cc[nH]c2c1=O [Example 61, 4-[({3-[2-(6-methyl-7-oxo-6,7-dihydro-1H-pyrrolo[2,3-c]pyridin-4-yl)-4-(methylsulfonyl)phenoxy]phenyl}amino)methyl]benzonitrile]	1.3 nM	3.7 nM
Cn1cc(-c2cc(S(C)(=O)=O)ccc2Oc2cccc(NCc3ccc(F)cc3)c2)c2cc[nH]c2c1=O [Example 62, 4-[2-{3-[(4-fluorobenzyl)amino]phenoxy}-5-(methylsulfonyl)phenyl]-6-methyl-1,6-dihydro-7H-pyrrolo[2,3-c]pyridin-7-one]	1.4 nM	3.1 nM
CCS(=O)(=O)c1ccc(OCC2CC2(F)F)c(-c2cn(C)c(=O)c3[nH]c(C#CCN(C)C)cc23)c1 (stereo not shown) [Example 63, 4-{2-[(2,2-difluorocyclopropyl)methoxy]-5-(ethylsulfonyl)phenyl}-2-[3-(dimethylamino)prop-1-yn-1-yl]-6-methyl-1,6-dihydro-7H-pyrrolo[2,3-c]pyridin-7-one]	3.3 nM	1.3 nM
COCCNc1cccc(Oc2ccc(S(C)(=O)=O)cc2-c2cn(C)c(=O)c3[nH]ccc23)c1 [Example 64, 4-[2-{3-[(2-methoxyethyl)amino]phenoxy}-5-(methylsulfonyl)phenyl]-6-methyl-1,6-dihydro-7H-pyrrolo[2,3-c]pyridin-7-one]	3.4 nM	5.2 nM
Cn1cc(-c2cc(S(C)(=O)=O)ccc2Oc2cccc(NCC3CCCO3)c2)c2cc[nH]c2c1=O (stereo not shown) [Example 65, 6-methyl-4-[5-(methylsulfonyl)-2-{3-[(tetrahydrofuran-2-ylmethyl)amino]phenoxy}phenyl]-1,6-dihydro-7H-pyrrolo[2,3-c]pyridin-7-one]	2.1 nM	6.9 nM

The next lines start with the values.

Ki (BRD4 (BDII_E352-M457))	Ki (BRD4 (BDI_K57-E168))	SMILES
1.7 nM	3.8 nM	COc1cccc(CNc2cccc(Oc3ccc(S(C)(=O)=O)cc3-c3cn(C)c(=O)c4[nH]ccc34)c2)c1 [Example 66, 4-[2-{3-[(3-methoxybenzyl)amino]phenoxy}-5-(methylsulfonyl)phenyl]-6-methyl-1,6-dihydro-7H-pyrrolo[2,3-c]pyridin-7-one]
2.8 nM	4.3 nM	Cn1cc(-c2cc(S(C)(=O)=O)ccc2Oc2cccc(NCc3ccccc3F)c2)c2cc[nH]c2c1=O [Example 67, 4-[2-{3-[(2-fluorobenzyl)amino]phenoxy}-5-(methylsulfonyl)phenyl]-6-methyl-1,6-dihydro-7H-pyrrolo[2,3-c]pyridin-7-one]
4.7 nM	10 nM	Cn1cc(-c2cc(S(C)(=O)=O)ccc2Oc2cccc(NCc3cccc(F)c3)c2)c2cc[nH]c2c1=O [Example 68, 4-[2-{3-[(3-fluorobenzyl)amino]phenoxy}-5-(methylsulfonyl)phenyl]-6-methyl-1,6-dihydro-7H-pyrrolo[2,3-c]pyridin-7-one]
1.6 nM	4.1 nM	Cn1cc(-c2cc(S(C)(=O)=O)ccc2Oc2cccc(NCc3cccc(OC(F)(F)F)c3)c2)c2cc[nH]c2c1=O [Example 69, 6-methyl-4-[5-(methylsulfonyl)-2-(3-{[3-(trifluoromethoxy)benzyl]amino}phenoxy)phenyl]-1,6-dihydro-7H-pyrrolo[2,3-c]pyridin-7-one]
6.5 nM	16 nM	Cc1ccc(CNc2cccc(Oc3ccc(S(C)(=O)=O)cc3-c3cn(C)c(=O)c4[nH]ccc34)c2)c(C)c1 [Example 70, 4-[2-{3-[(2,4-dimethylbenzyl)amino]phenoxy}-5-(methylsulfonyl)phenyl]-6-methyl-1,6-dihydro-7H-pyrrolo[2,3-c]pyridin-7-one]
19 nM	33 nM	Cn1cc(-c2cc(S(C)(=O)=O)ccc2Oc2cccc(NCc3ccccc3C#N)c2)c2cc[nH]c2c1=O [Example 71, 2-[({3-[2-(6-methyl-7-oxo-6,7-dihydro-1H-pyrrolo[2,3-c]pyridin-4-yl)-4-(methylsulfonyl)phenoxy]phenyl}amino)methyl]benzonitrile]
4.1 nM	7.4 nM	Cn1cc(-c2cc(S(C)(=O)=O)ccc2Oc2cccc(NCc3ccc(F)cc3Cl)c2)c2cc[nH]c2c1=O [Example 72, 4-[2-{3-[(2-chloro-4-fluorobenzyl)amino]phenoxy}-5-(methylsulfonyl)phenyl]-6-methyl-1,6-dihydro-7H-pyrrolo[2,3-c]pyridin-7-one]
3.5 nM	5.6 nM	Cn1cc(-c2cc(S(C)(=O)=O)ccc2Oc2cccc(NCc3cc(F)cc(F)c3)c2)c2cc[nH]c2c1=O [Example 73, 4-[2-{3-[(3,5-difluorobenzyl)amino]phenoxy}-5-(methylsulfonyl)phenyl]-6-methyl-1,6-dihydro-7H-pyrrolo[2,3-c]pyridin-7-one]
